Data published in patent publication US12357598B2, “Treatment of neurodevelopmental disorders” (THE REGENTS OF THE UNIVERSITY OF CALIFORNIA, priority 2018, dated 2025).

Molecular target: T1, sEH (Homo sapiens, UniProt P34913)
T1 sequence (P34913 1-555): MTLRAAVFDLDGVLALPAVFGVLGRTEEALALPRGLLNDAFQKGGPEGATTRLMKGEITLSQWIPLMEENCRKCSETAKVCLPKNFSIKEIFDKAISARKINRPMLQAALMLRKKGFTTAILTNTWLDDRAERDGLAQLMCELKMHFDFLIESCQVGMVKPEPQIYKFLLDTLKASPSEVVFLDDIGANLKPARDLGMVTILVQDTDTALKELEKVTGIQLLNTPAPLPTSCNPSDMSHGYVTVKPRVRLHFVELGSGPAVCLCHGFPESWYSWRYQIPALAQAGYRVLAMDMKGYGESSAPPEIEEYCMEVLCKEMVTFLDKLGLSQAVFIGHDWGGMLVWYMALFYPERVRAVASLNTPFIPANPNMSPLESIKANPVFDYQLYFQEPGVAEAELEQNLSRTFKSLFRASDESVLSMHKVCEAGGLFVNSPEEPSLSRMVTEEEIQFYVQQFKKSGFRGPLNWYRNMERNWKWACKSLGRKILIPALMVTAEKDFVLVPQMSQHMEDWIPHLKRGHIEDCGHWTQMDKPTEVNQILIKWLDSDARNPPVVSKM
Test: Testing of ureas and lipid alkoxides as sEH inhibitors
Type: biochemical
From the text: (Both the 1- and the 2-adamantyl ureas have been tested and have about the same high activity as an inhibitor of sEH. Thus, isomers of adamantyl dodecyl urea are preferred inhibitors. It is further expected that N, N′-dodecyl-cyclohexyl urea (DCU), and other inhibitors of sEH, and particularly dodecanoic acid ester derivatives of urea, are suitable for use in the methods. Preferred inhibitors include without limitation:
U.S. Pat. No. 5,955,496 (the '496 patent) also sets forth a number of sEH inhibitors which can be used in the methods. One category of these inhibitors comprises inhibitors that mimic the substrate for the enzyme. The lipid alkoxides (e.g., the 9-methoxide of stearic acid) are an exemplar of this group of inhibitors.

activity as an inhibitor of sEH: particularly high activity
Compound: CCCCCCCCCCCCNC(=O)NC12CC3CC(CC(C3)C1)C2 [ADU, N-Adamantyl-N′-dodecyl urea]
